Source: patent US12509467B2 (Hoffmann-La Roche Inc., priority 2020, dated 2025)

target: T1, human cGAS (residues 161-522) (Homo sapiens, UniProt Q8N884); assay: cGAS Activity Assay—Malachite Green; type: biochemical; details: not given
T1 construct: Recombinantly expressed purified human cGAS (residues 161-522) was used at 25 nM; made in house
Protocol: Compounds were tested for cGAS inhibition in a coupled enzymatic assay based on Phosphate detection by Malachite Green. Final assay conditions were 20 mM TRIS pH 7.5 (Applichem), 5 mM MgCl2 (Sigma) and 0.01% BSA (Sigma) supplemented with 80 μM ATP (Sigma), 80 μM GTP (Sigma) and 100 nM Interferon Stimulating DNA (ISD) (Microsynth).
1 μL of DMSO dilution series was transferred to 32.3 μL reaction buffer, mixed by pipetting up/down, spun for 1 minute at 3000 rpm and was visually inspected for precipitation. 5 μL of 3-fold enzyme stock solution were transferred to an empty 384-well Black/Clear Flat Bottom Polystyrene NBS (Corning) rows 3-24. Rows 1-2 were filled with assay buffer. Plates were spun 10 seconds at 1000 rpm (164×g). 5 μL of compound intermediate dilution was added and mixed by pipetting up/down to rows 3-24. Rows 1-2 were filled with 3.1% DMSO assay buffer. Plates were spun 10 seconds at 1000 rpm (164×g). 5 μL 3-fold Nucleotide/DNA mix was added to all wells to start the reaction. Plates were spun 10 seconds at 1000 rpm (164×g) and incubated for 4 hour at room temperature (RT) in the dark. 5 μL 4 U/mL PPase (Sigma) were added to all wells. Plates spun 10 seconds at 1000 rpm (164×g). 10 μL BioMol green Solution (Enzo Life Sciences) was added to all wells. Plates spun 10 seconds at 1000 rpm (164×g) and incubated 30 minutes at RT in the dark. Absorbance data was collected 620 nm on an EnVision Multilable Reader (Perkin Elmer) and the following measurement settings were used: excitation filter photometric was 620 nm; excitation from the top; measurement height was 1 mm; number of flashes was 30; number of flashes integrated was 1.
All plates are checked for abnormalities and outliers in the Blank Control (no protein, row 1) and the Neutral Control (no compound, row 2) are excluded using the 3*SD rule.
Table 5 provides IC50 values (μM) for cGAS inhibition obtained for particular examples of the present invention as measured by the above-described assay.

T1 sequence (Q8N884 161-522): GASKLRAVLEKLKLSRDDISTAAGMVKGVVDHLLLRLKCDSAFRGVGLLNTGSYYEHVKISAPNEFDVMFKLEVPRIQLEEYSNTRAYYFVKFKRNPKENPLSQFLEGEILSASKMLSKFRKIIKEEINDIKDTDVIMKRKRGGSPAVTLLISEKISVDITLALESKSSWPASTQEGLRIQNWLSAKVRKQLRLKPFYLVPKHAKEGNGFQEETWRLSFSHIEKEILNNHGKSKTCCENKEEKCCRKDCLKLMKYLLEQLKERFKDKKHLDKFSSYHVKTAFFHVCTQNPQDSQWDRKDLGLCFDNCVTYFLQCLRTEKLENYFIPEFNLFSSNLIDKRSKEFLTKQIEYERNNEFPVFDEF

IC50 [µM]	Structure (SMILES)
0.444	CCCc1cc(=O)n2nc(NCc3cc(-c4cn(C)cn4)ccc3Cl)nc2[nH]1 [Example 30, 2-[[2-chloro-5-(1-methylimid-azol-4-yl)phenyl]methylamino]-5-propyl-4H-[1,2,4]triazolo[1,5-a]pyrimidin-7-one]
4.61	O=c1cc(CNc2ccccc2)[nH]c2nc(NCc3ccc(Cl)cc3Cl)nn12 [Example 79, 5-(Anilinomethyl)-2-[(2,4-dichlorophenyl)methylamino]-4H-[1,2,4]triazolo[1,5-a]pyrimidin-7-one]
0.64	CCCc1cc(=O)n2nc(NCc3cc(-n4cncc4C)ccc3Cl)nc2[nH]1 [Example 87, 2-[[2-chloro-5-(5-methylimidazol-1-yl)phenyl]methylamino]-5-propyl-4H-[1,2,4]triazolo[1,5-a]pyrimidin-7-one]
2.11	O=c1cc(CCc2ccccc2)[nH]c2nc(NCc3ccc(Cl)cc3Cl)nn12 [Example 72, 2-[(2,4-dichlorophenyl)meth-ylamino]-5-(2-phenylethyl)-4H-[1,2,4]triazolo[1,5-a]-pyrimidin-7-one]
4.04	CCCc1cc(=O)n2nc(NCc3ccc(Cl)cc3F)nc2[nH]1 [Example 62]
1.94	CCCc1cc(=O)n2nc(NCc3cccc(-c4ccn(C)n4)c3)nc2[nH]1 [Example 13, 2-[[3-(1-methylpyrazol-3-yl)-phenyl]methylamino]-5-propyl-4H-[1,2,4]triazolo[1,5-a]-pyrimidin-7-one]
0.744	CCCc1cc(=O)n2nc(NCc3cc(-c4cccnc4)ccc3Cl)nc2[nH]1 [Example 21, 2-[[2-chloro-5-(3-pyridyl)phen-yl]-methylamino]-5-propyl-4H-[1,2,4]triazolo[1,5-a]pyrimidin-7-one]
4	CCCc1cc(=O)n2nc(NCc3ccc(OCc4ccccc4)cc3Cl)nc2[nH]1 [Example 15]
1.6	Cn1ccc(-c2ccc(Cl)c(CNc3nc4[nH]c(CCc5ccccc5)cc(=O)n4n3)c2)n1 [Example 26, 2-[[2-chloro-5-(1-methylpyrazol-3-yl)phenyl]methylamino]-5-(2-phenylethyl)-4H-[1,2,4]-triazolo[1,5-a]pyrimidin-7-one]
4.08	CCCc1cc(=O)n2nc(NCc3ccc(OCc4ccccc4)cc3)nc2[nH]1 [Example 17, 2-[(4-benzyloxyphenyl)methyl-amino]-5-propyl-4H-[1,2,4]-triazolo[1,5-a]pyrimidin-7-one]

same assay, conditions: cGAS inhibition; 25 nM cGAS, 80 μM ATP, 80 μM GTP, 100 nM ISD, 4 hour at RT, Malachite Green phosphate detection; read-out: IC50 cGAS

IC50 [µM]	Structure (SMILES)
3	CCCc1cc(=O)n2nc(NCc3ccc4ncccc4c3)nc2[nH]1 [Example 22, 5-propyl-2-(6-quinolylmethyl-amino)-4H-[1,2,4]triazolo[1,5-a]pyrimidin-7-one]
1.49	CCCc1cc(=O)n2nc(NCc3cc(-c4ccn(C)n4)ccn3)nc2[nH]1 [Example 82, 2-[[4-(1-methylpyrazol-3-yl)-2-pyridyl]methylamino]-5-propyl-4H-[1,2,4]triazolo-[1,5-a]pyrimidin-7-one]
2.91	CCCc1cc(=O)n2nc(NCc3ccc(OC)cc3F)nc2[nH]1 [Example 6, 2-[(2-fluoro-4-methoxyphenyl)-methylamino]-5-propyl-4H-[1,2,4]triazolo[1,5-a]pyrimidin-7-one]
2.19	CCCc1cc(=O)n2nc(NCc3cnc(N4CCOCC4)cc3Cl)nc2[nH]1 [Example 99, 2-[(4-Chloro-6-morpholino-3-pyridyl)methylamino]-5-propyl-4H-[1,2,4]triazolo[1,5-a]pyrimidin-7-one]
2.55	CCCc1cc(=O)n2nc(NCc3cc(N4CCCCC4)ncc3Cl)nc2[nH]1 [Example 94, 2-[[5-chloro-2-(1-piperidyl)-4-pyridyl]methylamino]-5-propyl-4H-[1,2,4]triazolo[1,5-a]pyrimidin-7-one]
0.079	CCCCc1cc(=O)n2nc(NCc3cc(-c4ccncn4)ccc3Cl)nc2[nH]1 [Example 86, 5-Butyl-2-[(2-chloro-5-pyrimidin-4-yl-phenyl)methylamino]-4H-[1,2,4]triazolo [1,5-a]pyrimidin-7-one]
1.76	O=c1cc(Cc2ccccc2)[nH]c2nc(NCc3ccc(Cl)cc3Cl)nn12 [Example 71, 5-benzyl-2-[(2,4-dichlorophen-yl)methylamino]-4H-[1,2,4]-triazolo[1,5-a]pyrimidin-7-one]
4.56	CCCc1cc(=O)n2nc(NCc3nc4ccccc4o3)nc2[nH]1 [Example 74, 2-(1,3-benzoxazol-2-ylmethyl-amino)-5-propyl-4H-[1,2,4]-triazolo[1,5-a]pyrimidin-7-one]
2.45	CC(Nc1nc2[nH]c(C(F)(F)F)cc(=O)n2n1)c1ccc(-c2ccccc2)cc1 (stereo not shown) [Example 78, 2-[1-(4-phenylphenyl)ethyl-amino]-5-(trifluoromethyl)-4H-[1,2,4]triazolo[1,5-a]pyrimidin-7-one]
0.326	CCCc1cc(=O)n2nc(NCc3cc(-c4ncccn4)ccc3Cl)nc2[nH]1 [Example 43, 2-[(2-chloro-5-pyrimidin-2-yl-phenyl)methylamino]-5-propyl-4H-[1,2,4]triazolo[1,5-a]-pyrimidin-7-one]
0.672	CCCc1cc(=O)n2nc(NCc3ccc(-c4ccccc4)cc3)nc2[nH]1 [Example 67, 2-[(4-phenylphenyl)methyl-amino]-5-propyl-4H-[1,2,4]-triazolo[1,5-a]pyrimidin-7-one]
9.28	CCCc1cc(=O)n2nc(NCc3ccc(Cl)cc3C)nc2[nH]1 [Example 66, 2-[(4-chloro-2-methylphenyl)-methylamino]-5-propyl-4H-[1,2,4]triazolo[1,5-a]pyrimidin-7-one]
1.15	CCCc1cc(=O)n2nc(NCc3cc(-c4ccn(C)n4)ccc3C#N)nc2[nH]1 [Example 84, 4-(1-methylpyrazol-3-yl)-2-[[(7-oxo-5-propyl-4H-[1,2,4]-triazolo[1,5-a]pyrimidin-2-yl)amino]methyl]benzonitrile]
0.827	O=c1cc(C(F)(F)F)[nH]c2nc(NCc3ccc(-c4ccccc4)cc3)nn12 [Example 75, 2-[(4-phenylphenyl)methyl-amino]-5-(trifluoromethyl)-4H-[1,2,4]triazolo[1,5-a]pyrimidin-7-one]
2.42	CCCc1cc(=O)n2nc(NCc3ccc(C#N)cc3Cl)nc2[nH]1 [Example 7, 3-chloro-4-[[(7-oxo-5-propyl-4H-[1,2,4]triazolo[1,5-a]-pyrimidin-2-yl)amino]methyl]-benzonitrile]
1.24	Cn1ccc(-c2ccc(F)c(CNc3nc4[nH]c(C(F)(F)F)cc(=O)n4n3)c2)n1 [Example 20, 2-[[2-fluoro-5-(1-methylpyrazol-3-yl)phenyl]methylamino]-5-(trifluoromethyl)-4H-[1,2,4]-triazolo[1,5-a]pyrimidin-7-one]
0.65	CCCc1cc(=O)n2nc(NCc3cc(N4CC(OC)C4)ncc3Cl)nc2[nH]1 [Example 93, 2-[[5-Chloro-2-(3-methoxyazetidin-1-yl)-4-pyridyl]methylamino]-5-propyl-4H-[1,2,4]triazolo[1,5-a]pyrimidin-7-one]
4.01	CCCc1cc(=O)n2nc(NCc3ccc(-n4ccnc4)cc3)nc2[nH]1 [Example 9, 2-[(4-imidazol-1-ylphenyl)meth-ylamino]-5-propyl-4H-[1,2,4]-triazolo[1,5-a]pyrimidin-7-one]
2.18	CCCc1cc(=O)n2nc(OCc3ccc(-c4ccccc4)cc3Cl)nc2[nH]1 [Example 92, 2-1(2-Chloro-4-phenyl-phenyl)methoxyl-5-propyl-4H-[1,2,4]triazolo[1,5-a]pyrimidin-7-one]
0.401	CCCc1cc(=O)n2nc(NCc3cc(-c4cnn(C)c4)ccc3Cl)nc2[nH]1 [Example 24, 2-[[2-chloro-5-(1-methylpyrazol-4-yl)phenyl]methylamino]-5-propyl-4H-[1,2,4]triazolo[1,5-a]pyrimidin-7-one]
0.603	COCCCc1cc(=O)n2nc(NCc3cc(-c4ccn(C)n4)ccc3Cl)nc2[nH]1 [Example 48, 2-[[2-chloro-5-(1-methylpyrazol-3-yl)phenyl]methylamino]-5-(3-methoxypropyl)-4H-[1,2,4]-triazolo[1,5-a]pyrimidin-7-one]
6.72	CCCc1cc(=O)n2nc(NC(C)c3ccc(Cl)cc3Cl)nc2[nH]1 (stereo not shown) [Example 76, 2-[1-(2,4-dichlorophenyl)ethyl-amino]-5-propyl-4H-[1,2,4]-triazolo[1,5-a]pyrimidin-7-one]
0.435	CCCCc1cc(=O)n2nc(NCc3nc(N4CCOCC4)ncc3Cl)nc2[nH]1 [Example 98, 5-Butyl-2-[(5-chloro-2-morpholino-pyrimidin-4-yl)methylamino]-4H-[1,2,4]triazolo[1,5-a]pyrimidin-7-one]
2.44	CCCc1cc(=O)n2nc(NCc3cc(-c4ccccc4)ccc3Cl)nc2[nH]1 [Example 23, 2-[(2-chloro-5-phenylphenyl)-methylamino]-5-propyl-4H-[1,2,4]triazolo[1,5-a]pyrimidin-7-one]
